From the supplement of paper PMC10307832

How the values were obtained:
Assay in all cases: relative viability (nuclei count vs DMSO), 5 days (fraction); higher = more cells survive
RU-SKI 43 = compound: CC[C@@H](C)CNCC(=O)N1CCC2=C([C@@H]1COC3=CC=CC(=C3)C)C=CS2 [RU-SKI 43]
How it was run: (§1)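 Vehicle-anchored 1536-well plates of lung cancer cell lines, held overnight at 37 °C, were pinned with five library-drug doses (not always all listed) spaced by √10. No medium change followed over the next 5 days, after which the cells were fixed, permeabilised and Hoechst-stained together and imaged at 4×. Nuclei were counted with MetaXpress, and viability is treated-well nuclei over vehicle-well nuclei, taken as a median across plates. Plates passed with control CV below 25% and at least one doubling.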

Irinotecan = compound: CCc1c2c(nc3ccc(OC(=O)N4CCC(N5CCCCC5)CC4)cc13)-c1cc3c(c(=O)n1C2)COC(=O)[C@]3(O)CC [Irinotecan]
How it was run: as §1

MK-8033 = compound: Cn1cc(-c2cnc3ccc4ccc(CS(=O)(=O)NCc5ccccn5)cc4c(=O)c3c2)cn1 [MK-8033]
How it was run: as §1

MK-8033 + Foretinib = compound: Cn1cc(-c2cnc3ccc4ccc(CS(=O)(=O)NCc5ccccn5)cc4c(=O)c3c2)cn1 [MK-8033] + COc1cc2c(Oc3ccc(NC(=O)C4(C(=O)Nc5ccc(F)cc5)CC4)cc3F)ccnc2cc1OCCCN1CCOCC1 [Foretinib] (partner 0.25 µM)
How it was run: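 Relative viability equals treated-well nuclei counts divided by vehicle-well nuclei counts. Counts came from 4× images of lung cancer cell lines grown in 1536-well plates for 5 days after pin-tool dosing on the day after seeding. Dosing used one drug alone or a fixed anchor-drug dose plus five library-drug doses (not always all listed) in √10 steps, and values are medians of duplicate plates.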

| Cell Line | relative viability (RU-SKI 43; 0.1 µM) | relative viability (RU-SKI 43; 0.3162 µM) | relative viability (RU-SKI 43; 1 µM) | relative viability (RU-SKI 43; 3.162 µM) | relative viability (RU-SKI 43; 10 µM) | relative viability (Irinotecan; 0.6325 µM) | relative viability (Irinotecan; 2 µM) | relative viability (Irinotecan; 6.325 µM) | relative viability (Irinotecan; 20 µM) | relative viability (MK-8033; 0.02 µM) | relative viability (MK-8033; 0.06325 µM) | relative viability (MK-8033; 0.2 µM) | relative viability (MK-8033; 0.6325 µM) | relative viability (MK-8033; 2 µM) | relative viability (MK-8033 + Foretinib; first compound 0.02 µM) | relative viability (MK-8033 + Foretinib; first compound 0.06325 µM) | relative viability (MK-8033 + Foretinib; first compound 0.2 µM) | relative viability (MK-8033 + Foretinib; first compound 0.6325 µM) | relative viability (MK-8033 + Foretinib; first compound 2 µM) |
| --- | --- | --- | --- | --- | --- | --- | --- | --- | --- | --- | --- | --- | --- | --- | --- | --- | --- | --- | --- |
| NCI-H2170 | 0.977 | 1.06 | 1.01 | 1.04 | 0.986 | 0.959 | 0.946 | 0.462 | 0.223 | 0.991 | 0.925 | 0.918 | 0.948 | 0.971 | 1.03 | 0.966 | 0.959 | 1.06 | 1.09 |
| LOU-NH91 | 0.971 | 0.918 | 1.03 | 0.939 | 0.932 | 0.898 | 0.971 | 0.456 | 0.385 | 0.979 | 0.712 | 0.941 | 0.937 | 0.975 | 0.94 | 0.583 | 0.906 | 0.878 | 0.9 |
| NCI-H596 | 0.945 | 0.965 | 1.01 | 0.963 | 0.983 | 0.889 | 1.07 | 0.914 | 0.643 | 0.918 | 0.838 | 0.971 | 0.983 | 1.04 | 0.763 | 0.733 | 0.957 | 0.477 | 0.886 |
| A549 | 1 | 1.12 | 1.13 | 0.939 | 0.9 | 0.943 | 0.78 | 0.2 | 0.0915 | 0.996 | 0.932 | 0.93 | 0.913 | 0.943 | 0.962 | 0.853 | 0.892 | 0.985 | 0.945 |
| LXF-289 | 1.05 | 1.08 | 1.02 | 1.1 | 0.999 | 0.892 | 0.965 | 0.659 | 0.265 | 1.02 | 0.983 | 0.955 | 1.16 | 0.995 | 0.965 | 0.934 | 0.938 | 1.04 | 0.965 |
| NCI-H727 | 0.838 | 0.989 | 1.08 | 1.1 | 0.811 | 0.516 | 0.565 | 0.531 | 0.54 | 0.877 | 0.691 | 0.911 | 1.13 | 0.97 | 0.817 |  | 0.859 | 0.685 | 1.06 |
| NCI-H2009 | 1.02 | 1.07 | 1.07 | 1.06 | 1.01 | 0.716 | 0.733 | 0.272 | 0.153 | 1.05 | 1.01 | 0.953 | 0.945 | 0.961 | 1.25 | 1.25 | 1.19 | 1.24 | 1.14 |
| NCI-H1395 | 0.978 | 0.928 | 1.05 | 0.899 | 0.885 |  | 0.9 | 0.504 | 0.411 | 0.941 | 0.77 | 0.812 | 0.906 | 0.867 | 0.989 | 0.855 | 0.939 | 0.98 | 0.994 |
| NCI-H1993 | 0.927 | 0.899 | 1.06 | 0.924 | 0.925 | 0.596 | 0.889 | 0.667 | 0.628 | 0.925 | 0.736 | 0.663 | 0.736 | 0.727 | 0.696 | 0.774 | 0.789 | 0.73 | 0.949 |
| HCC-366 | 1.11 | 1.23 | 1.05 | 1.08 | 0.979 | 0.591 | 0.615 | 0.093 | 0.081 | 1.03 | 1.03 | 0.977 | 1.02 | 1.06 | 0.965 | 0.864 | 0.929 | 0.965 | 0.962 |
| NCI-H322M | 0.985 | 0.945 | 1.05 | 0.939 | 0.978 | 0.8 | 0.754 | 0.503 | 0.385 | 0.952 | 0.766 | 0.878 | 0.957 | 0.929 | 0.918 | 0.868 | 0.955 | 1.03 | 0.965 |
